In patent US20240277718A1, “USE OF […] TO REDUCE ORGAN FIBROSIS” (SUNN[…].R.L., priority 2021, published 2024):
Entries after “also recorded” stand apart in the source; their conditions may differ.

Columns and labels:
[1] = tested on: genes encoding TGF-b, Wnt1, Wnt5, Wnt10, DKK1 and Col1A1; assay: Quantitative Real-Time PCR of fibrosis-related genes in lungs in HOCI-induced systemic fibrosis; assay type: in vivo, Balb/c mice; conditions: HOCI+Istra vs HOCI group, 10 mg/kg per day intraperitoneally, week 4 to 6, FIG. 4
Experimental: Quantitative Real Time PCR Method: Reverse transcription was performed using the Super-Script IV Reverse Transcriptase synthesis kit (Thermo Fisher Scientific) and random primers as indicated in the manufacturer's protocol and 1 μl of cDNA was then used for the PCR reaction by using ready-made primers (to identify Wnt1, Wnt 5, Wnt 10, TGF-b, Collagen 1A1 and DKK1) and Thermo Fisher Scientific master mix in the QuantStudio 6 Flex instrument from Applied Biosystems.
(§1) In fact, data obtained from literature indicate that it is possible to find a significant fibrosis in the major organs such as skin, heart, large vessels and lungs, already at the fourth week of induction of the disease: for this reason, the treatment with istradefylline started at the fourth week, carrying on both induction and treatment up to the sixth week.
Animals were divided into 3 groups of 7 animals each. […]
Lungs obtained from the animals of all the experimental groups were subjected to the extraction of the total RNA which was then analyzed with the quantitative Real-Time PCR and specific primers to evaluate the expression of the genes encoding for TGF-b, Wnt1, Wnt5, Wnt10, DKK1 and Col1A1 (type I collagen) measured compared to the expression of the housekeeping gene, b-actin.

[2] = tested on: systemic fibrosis induced with hypochlorous acid (HOCI) in Balb/c mice; assay: Histological analysis (hematoxylin/eosin, Masson's trichrome, Picrosirius red) of skin, heart and lung in HOCI-induced systemic fibrosis; assay type: in vivo; conditions: HOCI+Istra vs HOCI group, week 4 to 6
Experimental: Histological analysis, hematoxylin/eosin staining, Masson's trichrome and Picrosirius red: Tissues for histological and immunohistochemical analyses were fixed in 10% buffered formalin for 24 hours and then included according to standard paraffin protocol. The classic hematoxylin/eosin, Masson and Pricrosirius stainings were performed on 5-6 μm thickness tissue slices that were routinely processed using an automated histology preparer.
as §1
Animals were divided into 3 groups of 7 animals each. A group was used as control group and was the group of untreated animals (“Sham”); a group was subcutaneously treated with 400 μl of an aqueous solution of hypochlorous acid (HOCI) for 6 weeks; lastly a group was subcutaneously treated with the above-mentioned solution of HOCI at the dose of 400 μl (for 6 weeks) and with istradefylline (from week 4 up to week 6) at the dose of 10 mg/kg per day intraperitoneally and 1 hour after HOCI injection (“HOCI+Istra”). […]

[3] = tested on: vimentin and b-catenin (Wnt/b-catenin pathway); assay: Immunofluorescence for vimentin and b-catenin in skin, heart and lung in HOCI-induced systemic fibrosis; assay type: in vivo, Balb/c mice; conditions: HOCI+Istra vs HOCI group; all studied tissues (skin, lung, heart); 10 mg/kg per day intraperitoneally, week 4 to 6; FIG. 3
Experimental: Immunofluorescence methods to mark vimentin and b-catenin: For immunohistochemistry the 5 μm tissue slices were incubated with 10 mmol/pH 6.0 citrate buffer in a temperature of 98° C. for 20 min. To reduce the background fluorescence, tissues were kept in a humidified chamber in 2 mmol/L glycine for 30 minutes. For the blocking of nonspecific antigenic sites, incubation was performed for 1 hour with 5% fetal bovine serum diluted in PBS, with the addition of 3% serum bovine albumin and 1% Triton X-100. Primary antibodies (p-Ser552 b-catenin, diluted 1:200; Cell Signal Technologies; Vimentin monoclonal antibody diluted 1:800; Sigma-Aldrich) were diluted in PBS and kept for 1 hour at room temperature. A species-specific antibody from Vector Laboratories was used as a negative control of the reaction. Secondary antibodies labeled with anti-rabbit IgG-fluorescein isothiocyanate (green fluorescence) or with anti-mouse IgG Alexa Fluor 555 (fred fluorescence) were kept for 1 hour at room temperature before mounting the slides and to observe the reaction under the microscope. […]

CCn1c(=O)c2c(nc(/C=C/c3ccc(OC)c(OC)c3)n2C)n(CC)c1=O [istradefylline, 8-[(1E)-2-(3,4-Dimethoxyphenyl)ethenyl]-1,3-diethyl-3,7-dihydro-7-methyl-1H-purine-2,6-dione]
expression of genes related to the fibrotic process (Wnt1, 5, 10 and TGF-b; 'all 3 targets') relative to b-actin [1]: significant reduction in the expression | thickening in skin and at the myocardial and pulmonary level (hematoxylin/eosin) ([2]; istradefylline 10 mg/kg per day intraperitoneally, FIG. 1): significantly reduce the thickening | collagen fibers deposition (Masson trichrome and Picrosirius red) ([2]; skin, lung and heart tissues, 10 mg/kg per day intraperitoneally, FIG. 2, 10 mg/kg/day): lower deposition of collagen fibers; also recorded: significant reduction collagen fibers deposition | positivity of b-catenin (immunofluorescence) [3]: significantly reduced the positivity | positivity of vimentin (immunofluorescence, fibroblast marker) [3]: significantly reduced the positivity
